Molecules are shown by their SMILES.

Experiment [1] deals with T1, CISD1 Gene Product (mitoNEET) (Homo sapiens, UniProt Q9NZ45).
T1 sequence (Q9NZ45 33-108 limits assumed): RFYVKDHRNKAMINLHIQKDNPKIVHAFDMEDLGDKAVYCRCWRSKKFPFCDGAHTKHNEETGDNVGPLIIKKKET
The experiment in a line: Stability of Fe-S cluster binding of purified NEET protein (absorbance 458 nm). In kind it is biochemical. The settings on record: for Time (in minutes) to achieve 50% loss of bound cluster (Absorbance 458 nm) / Residual cluster bound at end of experiment (Percentage Absorbance 458 nm at time zero): mitoNEET 20 μM, compound 60 μM; for Time (in minutes) to achieve 50% loss of bound cluster (Absorbance 458 nm): pH 6, 37° C., run time 180 minutes, vehicle control 80; for Residual cluster bound at end of experiment (Percentage Absorbance 458 nm at time zero): pH 6, at 180 minutes, vehicle control 16%. In a few lines:
(§1)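 Purified NEET protein (20 μM) with compound (60 μM, 1:3 molar ratio) in 100 mM Bis-Tris pH 6, 100 mM NaCl, 66 μM DMSO at 37 °C; 458 nm absorbance decay read every 5 min for 500 min (NAF-1) or 180 min (mitoNEET, Miner2). Outputs: time to 50% absorbance loss and residual % bound cluster, versus protein alone.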

Experiment [2] concerns the target T2, CISD2 Gene Product (NAF-1) (Homo sapiens, UniProt Q8N5K1).
T2 sequence (Q8N5K1 57-135 limits assumed): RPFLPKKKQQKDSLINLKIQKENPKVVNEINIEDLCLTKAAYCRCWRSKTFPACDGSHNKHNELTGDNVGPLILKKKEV
Described as above. In kind it is biochemical. The conditions noted are these: NAF-1 20 μM, compound 60 μM; for Time (in minutes) to achieve 50% loss of bound cluster (Absorbance 458 nm): pH 6, 37° C., run time 500 minutes, vehicle control 310 or 210; for Residual cluster bound at end of experiment (Percentage Absorbance 458 nm at time zero): pH 6, at 500 minutes, vehicle control 3%. A digest of the protocol:
as §1

Take `CC1(C)CCc2sc(NC(=O)c3ccccc3)c(C(=O)O)c21` [Compound #37, 2-Benzamido-4,4-dimethyl-5,6-dihydrocyclopenta[b]thiophene-3-carboxylic acid]: in experiment [1], the “Time (in minutes) to achieve 50% loss of bound cluster (Absorbance 458 nm)” value is 85 (80) minutes and the “Residual cluster bound at end of experiment (Percentage Absorbance 458 nm at time zero)” value is recorded as 23% (16%). For the same compound, in experiment [2], the “Time (in minutes) to achieve 50% loss of bound cluster (Absorbance 458 nm)” value is recorded as 280 (210) minutes and the “Residual cluster bound at end of experiment (Percentage Absorbance 458 nm at time zero)” value is recorded as 3% (3%).

Take `CC1(C)Cc2c(sc(NC(=O)c3ccc(N4CCOCC4)cc3)c2C(=O)O)C(C)(C)C1` [Compound #36, 5,5,7,7-Tetramethyl-2-[(4-morpholinobenzoyl)amino]-4,6-dihydrobenzothiophene-3-carboxylic acid]: in experiment [1], the “Time (in minutes) to achieve 50% loss of bound cluster (Absorbance 458 nm)” value was 98 (80) minutes and the “Residual cluster bound at end of experiment (Percentage Absorbance 458 nm at time zero)” value is listed as 36 % (16%). Also, in experiment [2], the “Time (in minutes) to achieve 50% loss of bound cluster (Absorbance 458 nm)” value is reported as 210 (210) minutes and the “Residual cluster bound at end of experiment (Percentage Absorbance 458 nm at time zero)” value was 30% (3%).

Turning to `COC1CN(c2ccc(C(=O)Nc3sc4c(c3C(=O)O)CC(C)(C)CC4(C)C)cc2)C1` [Compound #58, 2-[[4-(3-Methoxyazetidin-1-yl)benzoyl]amino]-5,5,7,7-tetramethyl-4,6-dihydrobenzothiophene-3-carboxylic acid], in experiment [1], the “Time (in minutes) to achieve 50% loss of bound cluster (Absorbance 458 nm)” value is given as 100 (80) minutes and the “Residual cluster bound at end of experiment (Percentage Absorbance 458 nm at time zero)” value is given as 36% (16%). In addition, the “Stabiliser or destabiliser of Fe-S cluster binding by CISD1 Gene Product (mitoNEET)” value in experiment [1] (time to 50% cluster loss changed by more than 25% compared to the Control sample, at the concentrations tested) is listed as “stabilisers”. Moreover, in experiment [2], the “Time (in minutes) to achieve 50% loss of bound cluster (Absorbance 458 nm)” value was 280 (310) minutes and the “Residual cluster bound at end of experiment (Percentage Absorbance 458 nm at time zero)” value is 39% (3%).

The record behind these values is patent US11492347B2 (ENYO PHARMA, priority 2018, dated 2022).
